We go through 36 molecules from ChEMBL document CHEMBL1857833, “Screening and optimization of specific chemical series against human African Trypanosomiasis (HAT)”.

In brackets after ≈: the same amount, converted by molar mass. Some results are limits rather than exact numbers.

The IC50 is the concentration that gives 50% inhibition.

Data set [1] in a line: DNDI: Cytotoxicity against L929 mouse fibroblasts, CYTO-SP, 24 hour. It counts as toxicity, cell-based. Conditions: mouse, L929 mouse fibroblasts.
The test system of another data set is Trypanosoma brucei. The experiment in a line: DNDI: Inhibition of Human African Trypanosomiasis, SBRI 427, in vitro. The class given is functional, organism-based. As to conditions: Trypanosoma brucei, SBRI 427; read-out: IC50.

Turning to `Fc1ccccc1Oc1ncccc1CNC1CCCCC1`, the IC50 at 24 h in data set [1] was > 50 µg/mL. Further, in the data set on Trypanosoma brucei, the IC50 is > 5 µg/mL.

`C[C@@H]1[C@H]2C[C@@H](C[C@H]1N/C(=N\O)c1ccccc1-c1ccccc1)C2(C)C` gave an IC50 at 24 h in data set [1] of 17 µg/mL (≈ 48.8 µM). Further, the IC50 in the data set with Trypanosoma brucei is 5 µg/mL (≈ 14.3 µM).

For the molecule `O/N=C(/c1ccccc1-c1ccccc1)n1ccnc1`, the IC50 at 24 h in data set [1] was > 50 µg/mL. Also, the IC50 with Trypanosoma brucei was > 5 µg/mL.

`CCOc1ccccc1CN/C(=N\O)c1cccnc1Oc1ccc(C(C)C)cc1` came in with an IC50 at 24 h in data set [1] of 38.6 µg/mL (≈ 95.1 µM). Besides, in the data set with Trypanosoma brucei, the IC50 was determined as 1.12 µg/mL (≈ 2.76 µM).

Turning to `CCc1ccccc1Oc1ncccc1/C(N)=N\O`, the IC50 at 24 h in data set [1] was > 5 µg/mL. Also, the IC50 in the data set on Trypanosoma brucei is > 5 µg/mL.

`C[C@@H]1[C@@H](N/C(=N\O)c2ccccc2-c2ccccc2)C[C@H]2C[C@@H]1C2(C)C` came in with an IC50 at 24 h in data set [1] of 17 µg/mL (≈ 48.8 µM). The IC50 with Trypanosoma brucei was > 5 µg/mL.

Consider `COc1cc(C)ccc1Oc1nc(C)ccc1/C(=N/O)NCc1cc(F)cc(F)c1`, for which, in data set [1], the IC50 at 24 h was > 50 µg/mL. Also, in the data set on Trypanosoma brucei, the half-inhibitory concentration (IC50) came out at 1.02 µg/mL (≈ 2.47 µM).

Consider `N/C(=N/O)c1cccnc1Oc1ccc2ccccc2c1`, for which the IC50 at 24 h in data set [1] was > 50 µg/mL. The IC50 in the data set on Trypanosoma brucei is > 5 µg/mL.

Turning to `CCc1ccc(Oc2ncccc2/C(=N/O)NCc2ccccc2C)cc1`, in data set [1], the IC50 at 24 h is > 50 µg/mL. Besides, in the data set on Trypanosoma brucei, the IC50 came out at 1.07 µg/mL (≈ 2.96 µM).

`Cc1ccccc1CN/C(=N\O)c1cccnc1Oc1ccc(C(C)C)cc1` had an IC50 at 24 h in data set [1] of 44.9 µg/mL (≈ 120 µM). For the same molecule, the IC50 in the data set with Trypanosoma brucei was 1.06 µg/mL (≈ 2.82 µM).

With `N/C(=N/O)c1cccnc1Oc1cccc2ccccc12`, in data set [1], the IC50 at 24 h was > 50 µg/mL. Further, the IC50 in the data set on Trypanosoma brucei was > 5 µg/mL.

Consider `Cc1ccc(Oc2ncccc2/C(=N/O)NC2CCC(C)CC2)c2c1CCC2` (configuration not stated), for which the IC50 at 24 h in data set [1] turned out to be 32.5 µg/mL (≈ 85.5 µM). Also, the IC50 in the data set on Trypanosoma brucei amounted to 0.81 µg/mL (≈ 2.13 µM).

Turning to `COc1ccccc1Oc1ncccc1C(=N)NC1CCCCC1`, in data set [1], the IC50 at 24 h is > 50 µg/mL. Further, in the data set with Trypanosoma brucei, the IC50 is > 5 µg/mL.

On to `O/N=C(\NCC1CCCCC1)c1cccnc1Oc1ccc(Cl)cc1`, for which, in data set [1], the IC50 at 24 h was > 50 µg/mL. Further, the IC50 in the data set on Trypanosoma brucei came out at 0.92 µg/mL (≈ 2.56 µM).

As to `CC(C)c1ccc(Oc2ncccc2/C(=N/O)NCc2cccs2)cc1`, the IC50 at 24 h in data set [1] was > 50 µg/mL. Further, the IC50 in the data set on Trypanosoma brucei came out at 0.89 µg/mL (≈ 2.42 µM).

For the molecule `Cc1ccc(Oc2ncccc2/C(=N/O)NCc2cccs2)c2c1CCC2`, the IC50 at 24 h in data set [1] is > 50 µg/mL. Moreover, the IC50 with Trypanosoma brucei was 1.09 µg/mL (≈ 2.87 µM).

For `O/N=C(\NC1CCCCC1)c1ccnc(Oc2cccc3c2CCCC3)c1`, half-maximal inhibition in data set [1] (IC50 at 24 h) was put at 48.4 µg/mL (≈ 132 µM). Further, in the data set with Trypanosoma brucei, the 50% inhibitory concentration (IC50) turned out to be 0.83 µg/mL (≈ 2.27 µM).

Take `O/N=C(\NC1CCC1)c1cccnc1OCC1CCCCC1`: in data set [1], the IC50 at 24 h is > 50 µg/mL. Moreover, the IC50 in the data set with Trypanosoma brucei is 0.64 µg/mL (≈ 2.11 µM).

As for `CCOc1ccccc1CN/C(=N\O)c1cccnc1Oc1ccc(CC)cc1`, the IC50 at 24 h in data set [1] was > 50 µg/mL. In the data set with Trypanosoma brucei, the IC50 amounted to 0.76 µg/mL (≈ 1.94 µM).

On to `CC(C)(C)CN/C(=N\O)c1cccnc1Oc1ccc(Cl)cc1`, for which the half-inhibitory concentration (IC50) at 24 h in data set [1] is > 50 µg/mL. The IC50 with Trypanosoma brucei stood at 0.58 µg/mL (≈ 1.74 µM).

Consider `COc1ccc(Oc2ncccc2/C(=N/O)NCC(C)(C)C)cc1`, for which the IC50 at 24 h in data set [1] was > 50 µg/mL. Moreover, the IC50 with Trypanosoma brucei amounted to 0.18 µg/mL (≈ 0.546 µM).

In the case of `COc1cc(C)ccc1Oc1nc(C)ccc1/C(=N/O)NCc1cc(C)cc(C)c1`, the IC50 at 24 h in data set [1] was > 50 µg/mL. For the same molecule, in the data set on Trypanosoma brucei, the IC50 worked out at 1.1 µg/mL (≈ 2.71 µM).

Regarding `Cc1ccc(Oc2ncccc2/C(=N/O)NCC2CC2)c2c1CCC2`, the IC50 at 24 h in data set [1] is > 50 µg/mL. Also, the IC50 in the data set on Trypanosoma brucei amounted to 0.21 µg/mL (≈ 0.622 µM).

On to `COc1ccccc1Oc1ncccc1C(=O)NC1CCCCC1`, for which, in data set [1], the IC50 at 24 h is > 50 µg/mL. For the same molecule, in the data set on Trypanosoma brucei, the IC50 was > 5 µg/mL.

For `CCC(CC)N/C(=N\O)c1cccnc1OCC1CCCCC1`, the IC50 at 24 h in data set [1] worked out at 33.5 µg/mL (≈ 105 µM). Further, the IC50 in the data set on Trypanosoma brucei came out at 0.44 µg/mL (≈ 1.38 µM).

Regarding `CCC(CC)N/C(=N\O)c1cccnc1Oc1ccc(OC)cc1`, the IC50 at 24 h in data set [1] is > 50 µg/mL. Also, the IC50 with Trypanosoma brucei is 0.78 µg/mL (≈ 2.37 µM).

On to `Cc1ccccc1CN/C(=N\O)c1cccnc1Oc1c(F)cccc1F`, for which the IC50 at 24 h in data set [1] was > 50 µg/mL. Moreover, in the data set on Trypanosoma brucei, the IC50 turned out to be 1.02 µg/mL (≈ 2.76 µM).

Regarding `CCC(C)(C)N/C(=N\O)c1cccnc1Oc1ccc2ccccc2c1`, the IC50 at 24 h in data set [1] was > 50 µg/mL. The half-inhibitory concentration (IC50) in the data set on Trypanosoma brucei came out at 0.49 µg/mL (≈ 1.4 µM).

In the case of `N/C(=N/O)c1cccnc1Oc1ccccc1`, in data set [1], the IC50 at 24 h was > 50 µg/mL. The IC50 with Trypanosoma brucei was > 5 µg/mL.

Regarding `COc1ccc(Oc2ncccc2/C(=N/O)NC2CCCC2)cc1`, the IC50 at 24 h in data set [1] is > 50 µg/mL. In addition, the IC50 in the data set with Trypanosoma brucei came to 0.15 µg/mL (≈ 0.458 µM).

As for `O/N=C(\NC1CCC1)c1cccnc1Oc1ccc2c(c1)CCCC2`, the IC50 at 24 h in data set [1] is > 50 µg/mL. In the data set on Trypanosoma brucei, the half-maximal inhibitory concentration (IC50) amounted to 0.19 µg/mL (≈ 0.563 µM).

Consider `O/N=C(/c1cccnc1Oc1ccc2ccccc2c1)N1CCC2CCCCC2C1` (configuration not stated), for which the IC50 at 24 h in data set [1] was > 50 µg/mL. The IC50 with Trypanosoma brucei was 0.13 µg/mL (≈ 0.324 µM).

On to `COc1ccccc1Oc1ncccc1C(=N)N`, for which the IC50 at 24 h in data set [1] is > 50 µg/mL. Further, the IC50 in the data set on Trypanosoma brucei is > 5 µg/mL.

As for `CCc1ccc(Oc2ncccc2/C(=N/O)NCc2ccccc2OC)cc1`, in data set [1], the IC50 at 24 h was > 50 µg/mL. In addition, in the data set on Trypanosoma brucei, the IC50 amounted to 1.08 µg/mL (≈ 2.86 µM).

In data set [1], `CC1CC(N/C(=N\O)c2cccnc2Oc2ccc(C(C)C)cc2)CC(C)(C)C1` (configuration not stated) showed an IC50 at 24 h of 21.9 µg/mL (≈ 55.4 µM). Also, the IC50 in the data set on Trypanosoma brucei was 0.54 µg/mL (≈ 1.37 µM).

As for `Cc1ccc(Oc2ncccc2/C(=N/O)NCC(C)C)c2c1CCC2`, the IC50 at 24 h in data set [1] is > 50 µg/mL. Further, the IC50 in the data set with Trypanosoma brucei is 0.55 µg/mL (≈ 1.62 µM).
